# In patent US20220041647A1, “ESTRA-1,3,5(10)-TRIENE COMPOUNDS CONDENSED IN POSITION 16(17) WITH A PYRAZOLE RING AS INHIBITORS OF 17-HSD1” (FORENDO PHARMA LTD, priority 2018, published 2022):
# Legend:
# [1] = target: T1, recombinant human 17β-HSD1 (Homo sapiens, UniProt P14061); assay: Inhibition of recombinant human 17β-HSD1 (estrone to estradiol conversion, HPLC/radioactivity); type: biochemical; settings: compound 100 nM; 30 nM estrone, 1 mM NADPH, 30 min RT
# T1 construct: made in house; host or cells: Sd9 (Sf9) insect cells, baculovirus (Bac to Bac Expression System)
# T1 sequence (P14061 1-328): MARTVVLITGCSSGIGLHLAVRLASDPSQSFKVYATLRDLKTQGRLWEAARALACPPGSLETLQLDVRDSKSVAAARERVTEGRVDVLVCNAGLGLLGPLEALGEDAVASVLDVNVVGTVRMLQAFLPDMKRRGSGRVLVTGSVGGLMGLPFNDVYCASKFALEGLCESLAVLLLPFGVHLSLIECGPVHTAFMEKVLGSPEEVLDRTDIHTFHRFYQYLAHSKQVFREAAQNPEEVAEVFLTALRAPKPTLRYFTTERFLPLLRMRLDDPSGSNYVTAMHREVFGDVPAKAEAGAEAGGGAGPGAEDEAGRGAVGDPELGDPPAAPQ
# In short: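 Microsomal human 17β-HSD1 from Sf9 baculovirus (1 μg/ml) was incubated 30 min at RT in 20 mM KH2PO4 pH 7.4 with 30 nM ^3H-estrone, 1 mM NADPH and inhibitor at 1 μM or 0.1 μM (1% DMSO). Estrone and estradiol were separated by HPLC with radioactivity detection. % inhibition = 100 − % conversion relative to uninhibited control.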
# [2] = target: T2, recombinant human 17β-HSD2 (Homo sapiens, UniProt P37059); assay: Inhibition of recombinant human 17β-HSD2 (estradiol to estrone conversion, HPLC/radioactivity); type: biochemical; settings: compound 1 μM; 50 nM estradiol, 1 mM NADH, 30 min RT
# T2 construct: made in house; host or cells: Sd9 (Sf9) insect cells, baculovirus (Bac to Bac Expression System)
# T2 sequence (P37059 1-387): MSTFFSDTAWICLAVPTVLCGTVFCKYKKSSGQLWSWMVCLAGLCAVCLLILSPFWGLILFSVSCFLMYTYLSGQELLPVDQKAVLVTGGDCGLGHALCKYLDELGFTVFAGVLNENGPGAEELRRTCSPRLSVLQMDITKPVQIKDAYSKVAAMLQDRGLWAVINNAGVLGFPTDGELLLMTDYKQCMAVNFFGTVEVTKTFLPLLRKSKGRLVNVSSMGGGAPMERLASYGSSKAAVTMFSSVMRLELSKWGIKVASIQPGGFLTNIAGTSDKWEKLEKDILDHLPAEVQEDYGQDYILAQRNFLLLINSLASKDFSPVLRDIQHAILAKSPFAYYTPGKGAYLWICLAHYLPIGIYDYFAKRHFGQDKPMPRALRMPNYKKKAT
# In short: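 Membrane extract of Sf9 cells expressing recombinant human 17β-HSD2 (4 μg/ml), in 20 mM KH2PO4 pH 8.5 with 50 nM ^3H-spiked estradiol and 1 mM NADH, 30 min at RT, 1% DMSO. Compound at 1 μM or 0.1 μM; estrone formation by HPLC radioactivity, % inhibition relative to uninhibited conversion.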
# [3] = Metabolic stability assay, human hepatocyte incubations; type: in vitro ADME; settings: compound 1 μM, human hepatocytes, 0-60 min at 37° C.; read-out: Human hepatocytes MetStab T½ min
# Experimental: Compound stock solutions of the invention were prepared in […]. Final concentration of DMSO was adjusted to 1% in all samples. The in vitro metabolic stability of the compounds of the invention was determined for exemplified compounds using human hepatocyte incubations; study compounds at concentration of 1 μM were incubated 0, 10, 20, 40 and 60 min at 37° C. Samples were collected at all time points and compounds were detected by LC-MS/MS analysis. The percent compound remaining is calculated by comparing the peak area of the parent compound at each time point to time zero. In vitro metabolic stability was determined as half life (T1/2), which was determined by regression analysis of the percent parent disappearance vs. time curve.
# [4] = system: HSD1 enzyme that is expressed in rabbit placenta tissue; assay: Inhibition of E1 to E2 conversion in rabbit placenta tissue homogenate; type: biochemical; settings: compound 100 nM, 30 nM estrone, 1 mM β-NADPH, 30 min
# In short: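 Rabbit placenta homogenate (20 mM KH2PO4, 1 mM EDTA, pH 7.4) incubated 30 min with 1 mM β-NADPH, 30 nM estrone plus 5 nM [3H]-estrone tracer, and inhibitor at 1 μM or 0.1 μM (1% DMSO). Stopped with TCA; estrone and estradiol resolved by HPLC with scintillation counting; % inhibition = 100 − % conversion relative to uninhibited control.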
SMILES,inhibition at 0.1 µM [1],inhibition at 1 µM [2],half-life at 1 μM [3],Rabbit placenta inhibition % @100 nM [4]
"C[C@]12CCC3c4cccc(F)c4CCC3C1[C@H](CCC(=O)NC1CCOCC1)c1c[nH]nc12 (stereo partly drawn) [Compound 45, 3-((8aS,12S)-3-fluoro-8a-methyl-1,2,6b,7,8,8a,10,12,12a,12b-decahydronaphtho[2′,1′:4,5]indeno[1,2-c]pyrazol-12-yl)-N-(tetrahydro-2H-pyran-4-yl)propanamide]",90%,3%,35 min,
"C[C@]12CCC3c4ccccc4CCC3C1[C@H](CCC(=O)N1CCCC1)c1c[nH]nc12 (stereo partly drawn) [Compound 147, 3-((8aS,12S)-8a-methyl-1,2,6b,7,8,8a,10,12,12a,12b-decahydronaphtho[2′,1′:4,5]indeno[1,2-c]pyrazol-12-yl)-1-(pyrrolidin-1-yl)propan-1-one]",86%,11%,9 min,
"Cc1ccc(NC(=O)CC[C@@H]2c3c[nH]nc3[C@@]3(C)CCC4c5ccccc5CCC4C23)nn1 (stereo partly drawn) [Compound 195, 3-((8aS,12S)-8a-methyl-1,2,6b,7,8,8a,10,12,12a,12b-decahydronaphtho[2′,1′:4,5]indeno[1,2-c]pyrazol-12-yl)-N-(6-methylpyridazin-3-yl)propanamide]",70%,10%,,61%
"CN1CCN(c2ccc(NC(=O)CC[C@@H]3c4c[nH]nc4[C@@]4(C)CCC5c6ccccc6CCC5C34)nc2)CC1 (stereo partly drawn) [Compound 198, 3-((8aS,12S)-8a-methyl-1,2,6b,7,8,8a,10,12,12a,12b-decahydronaphtho[2′,1′:4,5]indeno[1,2-c]pyrazol-12-yl)-N-(5-(4-methylpiperazin-1-yl)pyridin-2-yl)propanamide]",88%,18%,,77%
"CC(C)(C)NC(=O)CC[C@@H]1c2c[nH]nc2[C@@]2(C)CCC3c4ccccc4CCC3C12 (stereo partly drawn) [Compound 201, N-(tert-butyl)-3-((8aS,12S)-8a-methyl-1,2,6b,7,8,8a,10,12,12a,12b-decahydronaphtho[2′,1′:4,5]indeno[1,2-c]pyrazol-12-yl)propanamide]",87%,4%,13 min,
"C[C@]12CCC3c4cccc(F)c4CCC3C1[C@H](CCC(=O)Nc1cccc(F)n1)c1c[nH]nc12 (stereo partly drawn) [Compound 204, 3-((8aS,12S)-3-fluoro-8a-methyl-1,2,6b,7,8,8a,10,12,12a,12b-decahydronaphtho[2′,1′:4,5]indeno[1,2-c]pyrazol-12-yl)-N-(6-fluoropyridin-2-yl)propanamide]",96%,1%,,63%
"CC(C)(C)c1cc(NC(=O)CC[C@@H]2c3c[nH]nc3[C@@]3(C)CCC4c5cccc(F)c5CCC4C23)no1 (stereo partly drawn) [Compound 213, N-(5-(tert-butyl)isoxazol-3-yl)-3-((8aS,12S)-3-fluoro-8a-methyl-1,2,6b,7,8,8a,10,12,12a,12b-decahydronaphtho[2′,1′:4,5]indeno[1,2-c]pyrazol-12-yl)propanamide]",93%,10%,,25%
"C[C@]12CCC3c4cccc(F)c4CCC3C1[C@H](CCC(=O)NC1CCOC1)c1c[nH]nc12 (stereo partly drawn) [Compound 225, 3-((8aS,12S)-3-fluoro-8a-methyl-1,2,6b,7,8,8a,10,12,12a,12b-decahydronaphtho[2′,1′:4,5]indeno[1,2-c]pyrazol-12-yl)-N-(tetrahydrofuran-3-yl)propanamide]",88%,-2%,,10%
"Cc1ccc(NC(=O)CC[C@@H]2c3c[nH]nc3[C@@]3(C)CCC4c5cccc(F)c5CCC4C23)nn1 (stereo partly drawn) [Compound 228, 3-((8aS,12S)-3-fluoro-8a-methyl-1,2,6b,7,8,8a,10,12,12a,12b-decahydronaphtho[2′,1′:4,5]indeno[1,2-c]pyrazol-12-yl)-N-(6-methylpyridazin-3-yl)propanamide]",87%,3%,,67%
"C[C@]12CCC3c4cccc(F)c4CCC3C1[C@H](CCC(=O)N1CCOCC1)c1c[nH]nc12 (stereo partly drawn) [Compound 234, 3-((8aS,12S)-3-fluoro-8a-methyl-1,2,6b,7,8,8a,10,12,12a,12b-decahydronaphtho[2′,1′:4,5]indeno[1,2-c]pyrazol-12-yl)-1-morpholinopropan-1-one]",85%,0%,26 min,
"C[C@]12CCC3c4cccc(F)c4CCC3C1[C@H](CCC(=O)Nc1cccnn1)c1c[nH]nc12 (stereo partly drawn) [Compound 237, 3-((8aS,12S)-3-fluoro-8a-methyl-1,2,6b,7,8,8a,10,12,12a,12b-decahydronaphtho[2′,1′:4,5]indeno[1,2-c]pyrazol-12-yl)-N-(pyridazin-3-yl)propanamide]",84%,1%,,58%
"C[C@]12CCC3c4cccc(F)c4CCC3C1[C@H](CCC(=O)Nc1cc(N3CCOCC3)ccn1)c1c[nH]nc12 (stereo partly drawn) [Compound 240, 3-((8aS,12S)-3-fluoro-8a-methyl-1,2,6b,7,8,8a,10,12,12a,12b-decahydronaphtho[2′,1′:4,5]indeno[1,2-c]pyrazol-12-yl)-N-(4-morpholinopyridin-2-yl)propanamide]",84%,2%,,35%
"Cc1cc(NC(=O)CC[C@@H]2c3c[nH]nc3[C@@]3(C)CCC4c5ccccc5CCC4C23)no1 (stereo partly drawn) [Compound 246, 3-((8aS,12S)-8a-methyl-1,2,6b,7,8,8a,10,12,12a,12b-decahydronaphtho[2′,1′:4,5]indeno[1,2-c]pyrazol-12-yl)-N-(5-methylisoxazol-3-yl)propanamide]",80%,15%,,19%
"C[C@]12CCC3c4ccccc4CCC3C1[C@H](CCC(=O)Nc1ccc(N3CCOCC3)cn1)c1c[nH]nc12 (stereo partly drawn) [Compound 252, 3-((8aS,12S)-8a-methyl-1,2,6b,7,8,8a,10,12,12a,12b-decahydronaphtho[2′,1′:4,5]indeno[1,2-c]pyrazol-12-yl)-N-(5-morpholinopyridin-2-yl)propanamide]",90%,7%,,46%
"C[C@]12CCC3c4ccccc4CCC3C1[C@H](CCC(=O)Nc1cccnn1)c1c[nH]nc12 (stereo partly drawn) [Compound 255, 3-((8aS,12S)-8a-methyl-1,2,6b,7,8,8a,10,12,12a,12b-decahydronaphtho[2′,1′:4,5]indeno[1,2-c]pyrazol-12-yl)-N-(pyridazin-3-yl)propanamide]",66%,0%,,46%
"C[C@]12CCC3c4ccccc4CCC3C1[C@H](CCC(=O)Nc1cccc(F)n1)c1c[nH]nc12 (stereo partly drawn) [Compound 258, N-(6-fluoropyridin-2-yl)-3-((8aS,12S)-8a-methyl-1,2,6b,7,8,8a,10,12,12a,12b-decahydronaphtho[2′,1′:4,5]indeno[1,2-c]pyrazol-12-yl)propanamide]",90%,2%,,43%
